Measurements published in PubChem BioAssay AID248 (DTP/NCI, 2004).
Several values for one entry are separate records, joined by “and”; a condition that tells them apart may be missing. Equal entries are not always repeated. Inconclusive results and toxic doses are left out. No stated cut-off is given here; in the data, active means T/C of 150% or more; inactive means T/C below 125%.

Test system: L1210 leukemia ip in BDF1 mice, survival T/C
Assay: NCI In Vivo Anticancer Drug Screen. Data for tumor model L1210 Leukemia (intraperitoneal) in B6D2F1 (BDF1) mice
Conditions: endpoint: mean survival time, higher = longer survival
Outline: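 Survival endpoint. Drug-treated group vs vehicle group, expressed as T divided by C. Tumor passaged by transplantation.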

[1] = dose: 100.0 mg/kg/injection, schedule: Q04DX003 (ip), vehicle: saline
[2] = dose: 200.0 mg/kg/injection, schedule: Q04DX003 (ip), vehicle: saline
[3] = dose: 400.0 mg/kg/injection, schedule: Q04DX003 (ip), vehicle: saline
[4] = dose: 100.0 mg/kg/injection, schedule: Q04DX003 (ip), vehicle: Klucel (hydroxypropylcellulose) (HPC)
[5] = dose: 200.0 mg/kg/injection, schedule: Q04DX003 (ip), vehicle: Klucel (hydroxypropylcellulose) (HPC)
[6] = dose: 400.0 mg/kg/injection, schedule: Q04DX003 (ip), vehicle: Klucel (hydroxypropylcellulose) (HPC)
[7] = dose: 100.0 mg/kg/injection, schedule: Q04DX002 (ip), vehicle: Klucel (hydroxypropylcellulose) (HPC)
[8] = dose: 200.0 mg/kg/injection, schedule: Q04DX002 (ip), vehicle: Klucel (hydroxypropylcellulose) (HPC)
[9] = dose: 400.0 mg/kg/injection, schedule: Q04DX002 (ip), vehicle: Klucel (hydroxypropylcellulose) (HPC)
[10] = dose: 100.0 mg/kg/injection, schedule: Q01DX001 (ip), vehicle: saline
[11] = dose: 6.25 mg/kg/injection, schedule: Q04DX003 (ip), vehicle: saline
[12] = dose: 12.5 mg/kg/injection, schedule: Q04DX003 (ip), vehicle: saline
[13] = dose: 25.0 mg/kg/injection, schedule: Q04DX003 (ip), vehicle: saline
[14] = dose: 100.0 mg/kg/injection, schedule: Q01DX009 (ip), vehicle: Klucel (hydroxypropylcellulose) (HPC)
[15] = dose: 200.0 mg/kg/injection, schedule: Q01DX009 (ip), vehicle: Klucel (hydroxypropylcellulose) (HPC)
[16] = dose: 400.0 mg/kg/injection, schedule: Q01DX009 (ip), vehicle: Klucel (hydroxypropylcellulose) (HPC)
[17] = dose: 50.0 mg/kg/injection, schedule: Q04DX002 (ip), vehicle: Klucel (hydroxypropylcellulose) (HPC)
[18] = dose: 100.0 mg/kg/injection, schedule: Q01DX005 (ip), vehicle: saline
[19] = dose: 200.0 mg/kg/injection, schedule: Q01DX005 (ip), vehicle: saline

Measured: T/C

CC(C)NC(=O)N(c1ccccc1)C(C)C
inactive: dose: 100.0 mg/kg/injection, schedule: Q04DX003 (ip), vehicle: saline with Tween-80 98 % of control | dose: 200.0 mg/kg/injection, schedule: Q04DX003 (ip), vehicle: saline with Tween-80 89 % of control | dose: 400.0 mg/kg/injection, schedule: Q04DX003 (ip), vehicle: saline with Tween-80 89 % of control

COc1ccc(CNCCNCCNCc2ccc(OC)cc2)cc1
inactive: dose: 100.0 mg/kg/injection, schedule: Q01DX009 (ip), vehicle: saline with Tween-80 107 % of control | [1] 104 % of control | dose: 200.0 mg/kg/injection, schedule: Q01DX009 (ip), vehicle: saline with Tween-80 109 % of control | [2] 102 % of control | dose: 400.0 mg/kg/injection, schedule: Q01DX009 (ip), vehicle: saline with Tween-80 102 % of control | [3] 104 % of control

NC(=O)C/C=C/CC(N)=O
inactive: [4] 102 % of control | [5] 102 % of control | [6] 102 % of control

COc1ccc2cc1Oc1ccc(cc1)CC1c3cc(c(OC)cc3CCN1C)Oc1c(OC)c(OC)c(OC)c3c1C(C2)N(C)CC3 (stereo unspecified)
inactive: [7] 102 % of control | [8] 91 % of control | [9] 94 % of control

COC1=C(NCCc2ccc(OC)c(OC)c2)C(=O)C(OC)=C(NCCc2ccc(OC)c(OC)c2)C1=O
inactive: [10] 109 % of control | dose: 200.0 mg/kg/injection, schedule: Q01DX001 (ip), vehicle: saline 98 % of control | dose: 400.0 mg/kg/injection, schedule: Q01DX001 (ip), vehicle: saline 96 % of control

O=[N+]([O-])c1ccccc1/C=N/N1CCN(/N=C/c2ccccc2[N+](=O)[O-])CC1
inactive: dose: 200.0 mg/kg/injection, schedule: Q01DX001 (ip), vehicle: carboxymethylcellulose (CMC) 89 % of control | dose: 400.0 mg/kg/injection, schedule: Q01DX001 (ip), vehicle: carboxymethylcellulose (CMC) 89 % of control

C=CCN(C(=O)C=C)C1CCCCC1
inactive: dose: 50.0 mg/kg/injection, schedule: Q01DX001 (ip), vehicle: saline 98 % of control | [10] 101 % of control

CC(C)CC(C)(O)C(N)=O (stereo unspecified)
inactive: [1] 102 % of control | [2] 102 % of control | [3] 91 % of control

C/C=C/C(=O)OCCC[N+](C)(C)C
inactive: dose: 0.78 mg/kg/injection, schedule: Q01DX009 (ip), vehicle: saline 95 % of control | dose: 1.56 mg/kg/injection, schedule: Q01DX009 (ip), vehicle: saline 97 % of control | dose: 3.12 mg/kg/injection, schedule: Q01DX009 (ip), vehicle: saline 100 % of control | [11] 111 % of control | [12] 88 % of control | [13] 103 % of control

CC(C)(C)C1CCC(NC(=O)c2ccccc2)CC1 (stereo unspecified)
inactive: [14] 108 % of control | [4] 102 % of control | [15] 109 % of control | [5] 98 % of control | [16] 86 % of control | [6] 100 % of control

CCOC(=O)c1ccc(NC(=O)C2CC2)cc1
inactive: [14] 113 % of control | [15] 109 % of control | [16] 104 % of control

NC(=O)NC(=O)CCl
inactive: [17] 103 % of control | [7] 109 % of control | [8] 95 % of control

Cc1cn(C2CC(O)C(CN)O2)c(=O)[nH]c1=O (stereo unspecified)
inactive: [18] 96 % of control | [19] 104 % of control

Cc1cccc(C)c1NC(=O)Nc1ncccn1
inactive: dose: 25.0 mg/kg/injection, schedule: Q04DX002 (ip), vehicle: Klucel (hydroxypropylcellulose) (HPC) 99 % of control | [17] 96 % of control | [14] 103 % of control | [7] 105 % of control | [15] 104 % of control | [8] 97 % of control | [16] 101 % of control | [9] 93 % of control

Oc1ccc(OCc2ccccc2)cc1
inactive: dose: 25.0 mg/kg/injection, schedule: Q01DX009 (ip), vehicle: Klucel (hydroxypropylcellulose) (HPC) 110 % of control | dose: 50.0 mg/kg/injection, schedule: Q01DX009 (ip), vehicle: Klucel (hydroxypropylcellulose) (HPC) 88 % of control | [14] 100 % of control | dose: 100.0 mg/kg/injection, schedule: Q04DX003 (ip), vehicle: other 103 % of control | dose: 200.0 mg/kg/injection, schedule: Q04DX003 (ip), vehicle: other 102 % of control | dose: 400.0 mg/kg/injection, schedule: Q04DX003 (ip), vehicle: other 93 % of control

COc1ccc(C=[N+](C)CCc2ccc(OC)c(OC)c2)cc1OC
inactive: dose: 25.0 mg/kg/injection, schedule: Q01DX009 (ip), vehicle: saline 96 % of control | dose: 50.0 mg/kg/injection, schedule: Q01DX009 (ip), vehicle: saline 101 % of control | dose: 100.0 mg/kg/injection, schedule: Q01DX009 (ip), vehicle: saline 93 % of control and 116 % of control | [1] 100 % of control | dose: 200.0 mg/kg/injection, schedule: Q01DX009 (ip), vehicle: saline 98 % of control and 91 % of control | [2] 97 % of control

CCCCCCCCCCCCc1ccc(/C(C)=N/NC(=O)c2ccc[n+](C)c2)cc1
inactive: dose: 100.0 mg/kg/injection, schedule: Q01DX001 (ip), vehicle: saline with Tween-80 93 % of control

Nc1ncn(C2CC(OC(=O)c3ccc(Cl)cc3)C(COC(=O)c3ccc(Cl)cc3)O2)c(=O)n1 (stereo unspecified)
inactive: [18] 110 % of control and 122 % of control | [19] 104 % of control

COC(=O)C(Br)(C(=O)OC)C(c1ccccc1)c1ccccc1
inactive: dose: 100.0 mg/kg/injection, schedule: Q04DX002 (ip), vehicle: other 90 % of control | dose: 200.0 mg/kg/injection, schedule: Q04DX002 (ip), vehicle: other 86 % of control | dose: 400.0 mg/kg/injection, schedule: Q04DX002 (ip), vehicle: other 93 % of control

CCN(CC)C/C=C/C(C)Nc1ccnc2cc(Cl)ccc12 (stereo unspecified)
inactive: dose: 5.0 mg/kg/injection, schedule: Q04DX002 (ip), vehicle: saline with Tween-80 98 % of control | dose: 10.0 mg/kg/injection, schedule: Q04DX002 (ip), vehicle: saline with Tween-80 98 % of control | dose: 20.0 mg/kg/injection, schedule: Q04DX002 (ip), vehicle: saline with Tween-80 94 % of control

CC(C)N(c1ccc(C(=O)O)cc1)C(C)C
inactive: dose: 100.0 mg/kg/injection, schedule: Q01DX009 (ip), vehicle: carboxymethylcellulose (CMC) 102 % of control and 109 % of control | dose: 100.0 mg/kg/injection, schedule: Q04DX002 (ip), vehicle: carboxymethylcellulose (CMC) 96 % of control and 98 % of control | dose: 100.0 mg/kg/injection, schedule: Q04DX003 (ip), vehicle: carboxymethylcellulose (CMC) 101 % of control | dose: 200.0 mg/kg/injection, schedule: Q01DX009 (ip), vehicle: carboxymethylcellulose (CMC) 102 % of control and 103 % of control | dose: 200.0 mg/kg/injection, schedule: Q04DX002 (ip), vehicle: carboxymethylcellulose (CMC) 95 % of control and 104 % of control | dose: 200.0 mg/kg/injection, schedule: Q04DX003 (ip), vehicle: carboxymethylcellulose (CMC) 98 % of control | dose: 400.0 mg/kg/injection, schedule: Q01DX009 (ip), vehicle: carboxymethylcellulose (CMC) 95 % of control and 97 % of control | dose: 400.0 mg/kg/injection, schedule: Q04DX002 (ip), vehicle: carboxymethylcellulose (CMC) 93 % of control and 86 % of control | dose: 400.0 mg/kg/injection, schedule: Q04DX003 (ip), vehicle: carboxymethylcellulose (CMC) 97 % of control

CCS(=O)(=O)c1ccc2nnnn2n1
inactive: [11] 103 % of control | [12] 100 % of control | [13] 112 % of control
